Measurements as given in article PMC8300687, “A Fine-Tuned Lipophilicity/Hydrophilicity Ratio Governs Antibacterial Potency and Selectivity of Bifurcated Halogen Bond-Forming NBTIs” (Antibiotics, 2021).
Values after ≈ are worked out from the molar mass of the structure shown. Read-outs that look alike come from different tables or passages of the source.

What was measured:
[1] = target: T1, Human topoisomerase IIα (Homo sapiens, UniProt P11388); experiment: Human topoisomerase II Alpha Relaxation High Throughput Plate assay; assay type: biochemical; conditions: 0.5 h; residual activity of the enzyme at compound concentration 10 μM, mean ± SD; read-out: Human Topo II (% RA)
T1 construct: purchased Inspiralis (Norwich, UK)
Protocol: A Human topoisomerase II Alpha Relaxation High Throughput Plate assay kit, purchased from Inspiralis (Norwich, UK) was used to evaluate the selectivity of compounds for the bacterial enzymes over the homologous human topoisomerase II. […] Biotinylated oligonucleotide in wash buffer was immobilized onto the wells and the excess oligonucleotide was washed off with wash buffer. […] The reactions were stopped by adding the TF buffer (50 mM NaOAc (pH 4.7), 50 mM NaCl, and 50 mM MgCl2) to allow the triplex formation (biotin-oligonucleotide-plasmid) for additional 30 min. Afterward, the unbound plasmid was washed off using TF buffer, and the solution of Promega Diamond dye in T10 buffer (10 mM Tris-HCl (pH 8.0), 1 mM EDTA) was added. […] Screening was performed at inhibitor concentrations of 10 μM. Raw data were converted to mean ± SD percentage of residual activity of the enzyme obtained by two independent measurements.

[2] = target: T2, E. coli Topo IV (Escherichia coli, UniProt P0AFI2); experiment: Topo IV Relaxation High Throughput Plate assay, E. coli; assay type: biochemical; conditions: for LE Topo IV E. coli: LE = (1.37/HA) × pIC50
T2 construct: purchased Inspiralis (Norwich, UK)
T2 sequence (P0AFI2 whole entry): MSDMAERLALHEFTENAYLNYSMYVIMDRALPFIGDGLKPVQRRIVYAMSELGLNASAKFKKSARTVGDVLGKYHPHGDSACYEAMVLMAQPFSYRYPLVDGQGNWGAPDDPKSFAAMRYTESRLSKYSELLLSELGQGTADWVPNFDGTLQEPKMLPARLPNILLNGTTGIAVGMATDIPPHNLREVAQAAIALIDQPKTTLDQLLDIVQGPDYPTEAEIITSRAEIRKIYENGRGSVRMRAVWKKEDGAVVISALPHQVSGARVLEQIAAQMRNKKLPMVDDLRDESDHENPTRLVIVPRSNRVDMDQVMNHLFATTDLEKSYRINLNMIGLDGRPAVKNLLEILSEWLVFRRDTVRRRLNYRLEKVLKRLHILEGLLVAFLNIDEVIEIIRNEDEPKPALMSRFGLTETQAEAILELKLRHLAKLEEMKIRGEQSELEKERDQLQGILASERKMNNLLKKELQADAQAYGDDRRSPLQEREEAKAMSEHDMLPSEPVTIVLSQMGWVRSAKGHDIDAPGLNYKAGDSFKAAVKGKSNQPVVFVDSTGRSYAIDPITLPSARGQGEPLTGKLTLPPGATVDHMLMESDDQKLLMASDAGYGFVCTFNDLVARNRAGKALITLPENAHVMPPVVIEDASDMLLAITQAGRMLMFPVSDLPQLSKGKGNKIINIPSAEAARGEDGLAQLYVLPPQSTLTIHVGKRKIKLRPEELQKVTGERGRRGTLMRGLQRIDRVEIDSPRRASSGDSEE
T2 sequence (P20083 whole entry, further chain): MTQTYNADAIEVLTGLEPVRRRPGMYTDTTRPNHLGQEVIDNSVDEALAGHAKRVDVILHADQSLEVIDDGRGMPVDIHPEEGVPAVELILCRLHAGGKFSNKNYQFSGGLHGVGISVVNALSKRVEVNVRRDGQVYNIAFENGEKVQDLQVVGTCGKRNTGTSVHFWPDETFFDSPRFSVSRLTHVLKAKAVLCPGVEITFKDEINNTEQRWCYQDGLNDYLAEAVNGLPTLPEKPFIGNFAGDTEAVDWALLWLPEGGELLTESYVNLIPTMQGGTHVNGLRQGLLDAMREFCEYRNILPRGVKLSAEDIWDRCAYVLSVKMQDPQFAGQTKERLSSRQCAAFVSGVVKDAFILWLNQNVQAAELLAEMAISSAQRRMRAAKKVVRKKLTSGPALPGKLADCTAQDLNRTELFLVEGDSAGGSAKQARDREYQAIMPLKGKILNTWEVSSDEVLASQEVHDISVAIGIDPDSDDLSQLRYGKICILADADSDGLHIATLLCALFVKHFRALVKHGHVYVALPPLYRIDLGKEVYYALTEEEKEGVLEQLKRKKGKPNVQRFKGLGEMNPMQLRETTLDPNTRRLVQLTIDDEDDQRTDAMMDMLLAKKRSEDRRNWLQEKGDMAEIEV
Protocol: A Topo IV Relaxation High Throughput Plate assay kit, purchased from Inspiralis (Norwich. UK) was used to determine IC50 values of compounds on S. aureus and E. coli. […] Biotinylated oligonucleotide in wash buffer was immobilized onto the wells, and the excess oligonucleotide was washed off with wash buffer and ultrapure water. 1.5 U of S. aureus or E. coli […] enzyme was incubated together with 0.75 μg of supercoiled pNO1 plasmid as a substrate in the presence of 3 μL inhibitor solution in 10% DMSO and 0.008% Tween 20 at 37 °C for 30 min in a final reaction volume of 30 μL in dilution buffer (50 mM Tris-HCl (pH 7.5), 1 mM DTT, 1 mM EDTA, 40% (w/v) glycerol for S. aureus and 40 mM HEPES, KOH (pH 7.6), 100 mM potassium glutamate, 1 mM DTT, 1 mM EDTA, and 40% (v/v) glycerol for E. coli). The reactions were stopped by adding the TF buffer (50 mM NaOAc (pH 4.7), 50 mM NaCl, and 50 mM MgCl2) to allow the triplex formation (biotin-oligonucleotide-plasmid) for additional 30 min. Afterward, the unbound plasmid was washed off using TF buffer, and the solution of Promega Diamond dye in T10 buffer (10 mM Tris-HCl (pH 8.0), 1 mM EDTA) was added. […] IC50 value represents the mean of two to four independent measurements.

[3] = system: C. jejuni RDK 135 (ATCC 33560); experiment: MIC broth microdilution, C. jejuni; assay type: cell-based
Protocol: (§1) Antimicrobial testing was carried out by the broth microdilution method in 96-well plate format following the Clinical and Laboratory Standards Institute (CLSI) guidelines and European Committee on Antimicrobial Susceptibility Testing (EUCAST) recommendations. Bacterial suspension of specific bacterial strain equivalent to 0.5 McFarland turbidity standard was diluted with cation-adjusted Mueller Hinton broth with TES (Thermo Fisher Diagnostic, Landsmeer, The Netherlands), to obtain a final inoculum of 10^5 CFU/mL. Compounds dissolved in DMSO and inoculum were mixed together and incubated for 18–20 h at 35 °C. Suspensions of Mycobacterium sp. were prepared into a tube of Middelbrook 7H9 broth supplemented with 5% OADC (Thermo Scientific, Trek Diagnostic Systems, West Sussex, UK) and incubated for at least 10 days. After incubation the minimal inhibitory concentration (MIC) values were determined by visual inspection as the lowest dilution of compounds showing no turbidity. Tetracycline was used as a positive control on every assay plate.

[4] = system: E. coli (QA-11.8); experiment: MIC broth microdilution, E. coli QA-11.8; assay type: cell-based
Protocol: as §1

[5] = system: A. baumannii 8C6 (GES-14); experiment: MIC broth microdilution, A. baumannii; assay type: cell-based
Protocol: as §1

[6] = target: T3, S. aureus DNA gyrase (Staphylococcus aureus, UniProt P20831); experiment: biochemical; assay type: biochemical; conditions: for LE DNA Gyrase S. aureus: LE = (1.37/HA) × pIC50; for IC50: fluorescence plate supercoiling assay, mean of two to four measurements
T3 construct: purchased Inspiralis (Norwich, UK)
T3 sequence (P20831 whole entry): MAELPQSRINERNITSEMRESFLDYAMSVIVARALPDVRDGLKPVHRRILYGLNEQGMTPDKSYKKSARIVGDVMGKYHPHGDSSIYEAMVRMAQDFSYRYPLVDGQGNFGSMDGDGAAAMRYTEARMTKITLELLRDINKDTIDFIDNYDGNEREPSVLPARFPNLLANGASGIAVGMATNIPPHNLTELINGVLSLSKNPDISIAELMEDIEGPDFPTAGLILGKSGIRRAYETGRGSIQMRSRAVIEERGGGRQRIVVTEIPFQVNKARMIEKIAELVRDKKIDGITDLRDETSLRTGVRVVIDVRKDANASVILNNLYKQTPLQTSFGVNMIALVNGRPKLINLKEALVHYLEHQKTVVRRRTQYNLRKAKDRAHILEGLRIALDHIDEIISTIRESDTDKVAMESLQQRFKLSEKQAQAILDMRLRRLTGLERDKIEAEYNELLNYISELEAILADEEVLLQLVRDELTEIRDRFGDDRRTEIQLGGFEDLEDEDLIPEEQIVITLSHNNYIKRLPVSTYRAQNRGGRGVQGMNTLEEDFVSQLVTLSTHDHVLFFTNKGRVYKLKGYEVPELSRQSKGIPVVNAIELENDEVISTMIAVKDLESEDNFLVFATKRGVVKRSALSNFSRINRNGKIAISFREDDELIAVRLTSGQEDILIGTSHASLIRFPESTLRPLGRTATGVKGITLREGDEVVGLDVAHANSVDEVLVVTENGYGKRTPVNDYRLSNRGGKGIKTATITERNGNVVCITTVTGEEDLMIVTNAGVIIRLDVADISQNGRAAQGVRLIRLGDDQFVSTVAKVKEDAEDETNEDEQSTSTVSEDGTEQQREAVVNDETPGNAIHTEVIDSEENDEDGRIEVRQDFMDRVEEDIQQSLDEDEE
T3 sequence (P0A0K8 whole entry partner): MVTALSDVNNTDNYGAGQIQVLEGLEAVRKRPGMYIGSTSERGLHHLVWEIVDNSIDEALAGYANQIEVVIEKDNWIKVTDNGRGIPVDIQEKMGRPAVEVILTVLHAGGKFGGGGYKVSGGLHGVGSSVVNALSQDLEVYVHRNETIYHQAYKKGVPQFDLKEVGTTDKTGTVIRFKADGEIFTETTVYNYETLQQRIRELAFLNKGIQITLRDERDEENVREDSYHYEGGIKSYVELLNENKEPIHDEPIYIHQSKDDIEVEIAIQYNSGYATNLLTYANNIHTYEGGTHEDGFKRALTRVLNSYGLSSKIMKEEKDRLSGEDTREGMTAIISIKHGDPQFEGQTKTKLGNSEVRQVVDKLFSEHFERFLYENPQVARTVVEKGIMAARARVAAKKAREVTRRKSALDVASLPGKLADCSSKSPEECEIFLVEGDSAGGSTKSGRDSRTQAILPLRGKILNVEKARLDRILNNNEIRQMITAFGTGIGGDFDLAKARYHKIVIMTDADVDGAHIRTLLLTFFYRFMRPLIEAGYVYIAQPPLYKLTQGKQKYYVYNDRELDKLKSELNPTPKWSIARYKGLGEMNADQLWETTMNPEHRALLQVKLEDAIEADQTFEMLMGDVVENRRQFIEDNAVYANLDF
Protocol: (§2) A Gyrase Supercoiling High Throughput Plate assay kit, purchased from Inspiralis (Norwich. UK) was used to determine IC50 values of compounds on S. aureus and E. coli. […] Biotinylated oligonucleotide in wash buffer was immobilized onto the wells, and the excess oligonucleotide was washed off with wash buffer and ultrapure water. […] The reactions were stopped by adding the TF buffer (50 mM NaOAc (pH 4.7), 50 mM NaCl, and 50 mM MgCl2) to allow the triplex formation (biotin-oligonucleotide-plasmid) for additional 30 min. Afterward, the unbound plasmid was washed off using TF buffer, and the solution of Promega Diamond dye in T10 buffer (10 mM Tris-HCl (pH 8.0), 1 mM EDTA) was added. […] IC50 value represents the mean of two to four independent measurements.

[7] = target: T4, E. coli DNA gyrase (Escherichia coli, UniProt P0AES4); experiment: Gyrase Supercoiling High Throughput Plate assay, E. coli; assay type: biochemical; conditions: for LE DNA Gyrase E. coli: LE = (1.37/HA) × pIC50
T4 construct: purchased Inspiralis (Norwich, UK)
T4 sequence (P0AES4 whole entry): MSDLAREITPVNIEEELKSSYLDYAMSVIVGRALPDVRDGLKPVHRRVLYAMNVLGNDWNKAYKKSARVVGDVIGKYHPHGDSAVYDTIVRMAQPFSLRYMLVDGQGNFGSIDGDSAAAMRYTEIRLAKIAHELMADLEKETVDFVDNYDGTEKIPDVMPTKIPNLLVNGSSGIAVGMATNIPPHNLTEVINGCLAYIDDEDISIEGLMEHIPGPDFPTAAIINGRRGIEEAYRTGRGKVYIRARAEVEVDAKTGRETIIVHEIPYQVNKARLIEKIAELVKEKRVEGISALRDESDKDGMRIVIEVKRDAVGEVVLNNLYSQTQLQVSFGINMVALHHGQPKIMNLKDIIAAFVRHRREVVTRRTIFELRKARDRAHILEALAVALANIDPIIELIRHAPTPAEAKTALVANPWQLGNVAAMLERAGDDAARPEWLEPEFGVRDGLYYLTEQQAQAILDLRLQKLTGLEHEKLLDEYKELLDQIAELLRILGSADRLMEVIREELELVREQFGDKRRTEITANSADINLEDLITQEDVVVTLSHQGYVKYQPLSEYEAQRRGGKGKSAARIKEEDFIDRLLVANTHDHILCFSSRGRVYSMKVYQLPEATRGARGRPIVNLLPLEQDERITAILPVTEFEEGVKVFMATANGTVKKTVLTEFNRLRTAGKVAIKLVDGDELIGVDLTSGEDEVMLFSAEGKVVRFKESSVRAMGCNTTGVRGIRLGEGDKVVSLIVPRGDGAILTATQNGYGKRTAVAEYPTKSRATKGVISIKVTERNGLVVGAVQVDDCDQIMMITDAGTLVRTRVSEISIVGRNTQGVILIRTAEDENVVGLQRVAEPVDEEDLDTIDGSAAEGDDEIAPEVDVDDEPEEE
Protocol: as §2

[8] = system: MRSA (QA-11.2); experiment: MIC broth microdilution, MRSA QA-11.2; assay type: cell-based, methicillin-resistant S. aureus; conditions: Staphylococcus aureus, 20 h, read-out: MIC MRSA (QA-11.2)
Protocol: as §1

[9] = system: MRSA (QA-11.7); experiment: MIC broth microdilution, MRSA QA-11.7; assay type: cell-based, methicillin-resistant S. aureus; conditions: Staphylococcus aureus, 20 h, read-out: MIC MRSA (QA-11.7)
Protocol: as §1

[10] = system: S. agalactiae RDK 047 (QA-990/02); experiment: MIC broth microdilution, S. agalactiae; assay type: cell-based
Protocol: as §1

[11] = Campylobacter jejuni, ATCC33560; read-out: MIC C. jejuni RDK 135 (ATCC 33560)
[12] = Escherichia coli, 20 h; read-out: MIC E. coli (QA-11.8)
[13] = Acinetobacter baumannii; read-out: MIC A. baumannii 8C6 (GES-14)
[14] = resistant to cefoxitin, chloramphenicol, clindamycin, linezolid, tetracycline, thiamulin, trimethoprim
[15] = Streptococcus agalactiae; read-out: MIC S. agalactiae RDK 047 (QA-990/02)
[16] = Campylobacter jejuni, ATCC33560, read-out: MIC C. jejuni RDK 135 (ATCC 33560)
[17] = Escherichia coli, 20 h, read-out: MIC E. coli (QA-11.8)
[18] = Acinetobacter baumannii, read-out: MIC A. baumannii 8C6 (GES-14)
[19] = Streptococcus agalactiae, read-out: MIC S. agalactiae RDK 047 (QA-990/02)

Row | SMILES | remaining activity at 10 µM [1] [%] | IC50 [2] [nM] | LE Topo IV E. coli [2] | MIC [3, 11] [µg/mL] | MIC [4, 12] [µg/mL] | MIC [5, 13] [µg/mL] | LE DNA Gyrase S. aureus [6] | IC50 [6] [nM] | IC50 [7] [µM] | MIC [8, 14] [µg/mL] | MIC [9] [µg/mL] | MIC [10, 15] [µg/mL] | LE DNA Gyrase E. coli [7] | improvement in S. aureus gyrase IC50 compared to its predecessor ([6]; vs methoxy-quinoline cyclohexyl-amide predecessor) [fold] | increase in potency on E. coli DNA gyrase ([7]; vs most potent compound from previous study [18]) | MIC [3, 16] [µg/mL] | MIC [4, 17] [µg/mL] | MIC [5, 18] [µg/mL] | MIC [8] [µg/mL] | MIC [10, 19] [µg/mL]
1 | COc1ccc2nccc(CCN3CCC(NCc4nc5ccccc5n4C)CC3)c2n1 [Compound 3, 1-(2-(6-Methoxy-1,5-naphthyridin-4-yl)ethyl)-N-((1-methyl-1H-benzo[d]imidazol-2-yl)methyl)piperidin-4-amine] | 94.7 ± 4.82 | 1180 ± 90 | 0.25 | 1 (≈ 2.32 µM) | 64 (≈ 149 µM) | > 128 | 0.25 | 1600 ± 350 | > 100 | 4 (≈ 9.29 µM) | 8 (≈ 18.6 µM) | < 1 | – | – | – | – | – | – | – | –
2 | COc1ccc2nccc(CCN3CCC(NCc4cnn(-c5ccc(F)cc5)c4)CC3)c2n1 [Compound 4, N-((1-(4-Fluorophenyl)-1H-pyrazol-4-yl)methyl)-1-(2-(6-methoxy-1,5-naphthyridin-4-yl)ethyl)piperidin-4-amine] | 88.41 ± 0.15 | 120 ± 10 | 0.28 | 128 (≈ 278 µM) | 16 (≈ 34.7 µM) | 32 (≈ 69.5 µM) | 0.25 | 510 ± 250 | 13.3 ± 2.84 | 8 (≈ 17.4 µM) | 2 (≈ 4.34 µM) | 2 (≈ 4.34 µM) | 0.20 | – | – | – | – | – | – | –
3 | COc1ccc2nccc(CCN3CCC(NCc4cnn(-c5ccccc5)c4)CC3)c2n1 [Compound 5, 1-(2-(6-Methoxy-1,5-naphthyridin-4-yl)ethyl)-N-((1-phenyl-1H-pyrazol-4-yl)methyl)piperidin-4-amine] | 82.1 ± 2.52 | 85 ± 2 | 0.29 | 16 (≈ 36.2 µM) | 2 (≈ 4.52 µM) | 4 (≈ 9.04 µM) | 0.27 | 330 ± 80 | 3 ± 0.55 | 1 (≈ 2.26 µM) | 0.5 (≈ 1.13 µM) | 1 (≈ 2.26 µM) | 0.23 | 2.5 | Approximately 4 fold | – | – | – | – | –
4 | COc1ccc2nccc(CCN3CCC(NCc4c(C)nc5c(C)cccn45)CC3)c2n1 [Compound 6, N-((2,8-Dimethylimidazo[1,2-a]pyridin-3-yl)methyl)-1-(2-(6-methoxy-1,5-naphthyridin-4-yl)ethyl)piperidin-4-amine] | 99.4 ± 9.93 | > 100000 | – | – | – | – | – | > 100000 | > 100 | – | > 128 | – | – | – | – | > 128 | > 128 | > 128 | > 128 | 128 (≈ 288 µM)
5 | COc1ccc2nccc(CCN3CCC(NC(=O)c4cn5cccc(C#N)c5n4)CC3)c2n1 [Compound 7, 8-Cyano-N-(1-(2-(6-methoxy-1,5-naphthyridin-4-yl)ethyl)piperidin-4-yl)imidazo[1,2-a]pyridine-2-carboxamide] | 90.3 ± 7.56 | > 100000 | – | – | – | – | – | > 100000 | > 100 | – | > 128 | – | – | – | – | > 128 | > 128 | > 128 | > 128 | > 128
